Experimental data reported in patent US7649002B2, “(3,5-dimethylpiperidin-1yl)(4-phenylpyrrolidin-3-yl)methanone derivatives as MCR4 agonists” (Pfizer Inc, priority 2004, dated 2010).
Structures can show the parent of a compound that is named as a salt.

target: T1, human MCR4 receptor (Homo sapiens, UniProt P32245); test: MCR4 improved functional assay (Protocol E): CHO-K1-MC4R-CRE-β-lactamase reporter; assay type: cell-based; conditions: Protocols C or E, read-out: functional potency at the MC4 receptor (EC50)
T1 construct: expressed in transfected cells
T1 sequence (P32245 whole entry): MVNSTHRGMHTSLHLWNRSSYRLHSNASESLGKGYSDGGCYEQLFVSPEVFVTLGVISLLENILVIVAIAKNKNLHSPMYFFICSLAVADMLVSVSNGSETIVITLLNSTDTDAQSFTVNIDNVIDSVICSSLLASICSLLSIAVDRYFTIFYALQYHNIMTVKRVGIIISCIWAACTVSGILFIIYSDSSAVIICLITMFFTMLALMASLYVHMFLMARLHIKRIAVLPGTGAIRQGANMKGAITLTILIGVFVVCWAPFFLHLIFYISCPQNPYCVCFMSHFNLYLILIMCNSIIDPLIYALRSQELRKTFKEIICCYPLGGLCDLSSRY
Excerpt: (ii) MCR5 Standard Functional Assay Methodology and MCR4 Improved Functional Assay Methodology [Assay Protocol D and E Respectively] […] These cell lines were engineered using protocols akin to those outlined by Zaccolo et al (Zaccolo, M., (2000) Nature, 2(1); 25-29). Compound-induced activation of the MCR5 or MCR4 receptors in these two cell lines stimulated the production, and intracellular accumulation, of the enzyme β-lactamase. The quantity of β-lactamase enzyme produced was directly proportional to the degree to which the test compound activated the MCR5 or MCR4 receptors present on these cells and was quantified using the P-lactamase gene reporter analysis kit that is commercially available from Invitrogen Life Technologies. An in-depth description of this technology and assay protocols are available from the Invitrogen web site (www.invitrogen.com). The protocol listed below provides a summary of that assay methodology. The quantity of β-lactamase enzyme produced by compound-induced activation of the MCR5 or MCR4 receptors expressed in these cell lines was quantified using a LjI Biosystems Analyst™ HT 96.384 plate reader set to excite at a wave length of 405 nm, and measure the energy emitted at wave lengths of 450 nm and 530 nm. Cellular responses were quantified by dividing the measured energy emitted at a wavelength of 450 nm by the measured energy emitted at a wavelength of 530 nm. […] CCF4-AM was dissolved in 100% DMSO to give a final solution concentration of 1 mM. This solution was termed Solution A. Probenecid was dissolved in 200 mM NaOH to give a final solution concentration of 200 mM. This solution was termed Solution D. Composition of the β-lactamase assay dye solution: for 1072 μL of assay dye solution combine: 12 μL of Solution A, 60 μL of Solution B, 925 μL of Solution C and 75 μL of Solution D. […] Cells were grown in T225 vent cap flasks containing 50 ml of growth medium and maintained in a cell incubator at a temperature of 37° C. and in an environment containing 5% CO2. The composition of the growth medium for the CHO-K1-MC5R-CRE-β-lactamase was 90% v/v DMEM supplemented with; Glutamax-1, 25 mM HEPES, 10% v/v foetal calf serum (FCS), 1 mM sodium pyruvate, 0.1 mM non essential amino acids and 800 μg/ml genetic in. For the CHO-K1-MC4R-CRE-β-lactamase this growth media was further supplemented with […] Zeocin. Cells were harvested when they reached 80-90% confluency by first removing the existing growth medium and then washing with PBS that had been pre-warmed to a temperature of 37° C. This PBS was then removed and 5 ml of cell dissociation fluid added to the flask. These cells were incubated for 5 minutes in a cell incubator set at a temperature of 37° C. and in an environment containing 5% CO2 to detach the cells. When cells were detached, pre-warmed growth media was added, the cells re-suspended and mixed gently to achieve a single cell suspension by pipetting. This cell suspension was then used for experimentation, or transferred into a new T225 flask to perpetuate the cell culture. […] For each assay the cell plates were then retuned to a cell incubator maintained at a temperature of 37° C. and in an environment containing 5% CO2 overnight before performing the assay on the second assay day. […] For the MCR4 improved functional assay methodology the solution of cyclohexamide was not added. Subsequently, 10 μL of the test compound solution was transferred to the assay plate. The assay plate was then transferred to a cell incubator, set at 37° C. and in an environment containing 5% CO2, and left for 4 hours for the MCR4 improved assay methodology, or 5 hours for the MCR5 standard assay methodology. After this incubation period the plate was removed from the incubator, 10 μL of the […] assay dye solution was added to each well and then the plate returned to the cell incubator.

Row | EC50 [nM] | SMILES
1 | < 10 | C[C@@H]1CN(C(=O)[C@@H]2CN(C(C)(C)C)C[C@H]2c2ccc(F)cc2F)C[C@H](C)[C@@]1(O)c1ccc(F)c(F)c1 [Example 8, (3R,4R,5S)-1-{[(3S,4R)-1-tert-Butyl-4-(2,4-difluorophenyl)pyrrolidin-3-yl]carbonyl}-4-(3,4-difluorophenyl)-3,5-dimethylpiperidin-4-ol hydrochloride]
2 | < 10 | C[C@@H]1CN(C(=O)[C@@H]2CN(C(C)(C)C)C[C@H]2c2ccc(F)cc2F)C[C@H](C)[C@@]1(O)c1ccc(F)cc1 [Example 9, (3R,4R,5S)-1-{[(3S,4R)-1-tert-butyl-4-(2,4-difluorophenyl)pyrrolidin-3-yl]carbonyl}-4-(4-fluorophenyl)-3,5-dimethylpiperidin-4-ol hydrochloride]
3 | < 150 | CC(C)N1C[C@@H](C(=O)N2C[C@@H](C)[C@](O)(c3ccc(F)cc3)[C@@H](C)C2)[C@H](c2ccc(F)cc2F)C1 [Example 10, (3R,4R,5S)-1-{[(3S,4R)-4-(2,4-difluorophenyl)-1-isopropylpyrrolidin-3-yl]carbonyl}-4-(4-fluorophenyl)-3,5-dimethylpiperidin-4-ol hydrochloride]
4 | < 150 | CCN1C[C@@H](C(=O)N2C[C@@H](C)[C@](O)(c3ccc(OC)cc3)[C@@H](C)C2)[C@H](c2ccc(F)cc2F)C1 [Example 14, (3R,4R,5S)-1-{[(3S,4R)-4-(2,4-difluorophenyl)-1-ethylpyrrolidin-3-yl]carbonyl}-4-(4-methoxyphenyl)-3,5-dimethylpiperidin-4-ol hydrochloride]
5 | < 150 | C[C@@H]1CN(C(=O)[C@@H]2CNC[C@H]2c2ccc(F)cc2F)C[C@H](C)[C@@]1(O)c1ccc(F)cc1F [Example 16, (3R,4R,5S)-4-(2,4-difluorophenyl)-1-{[(3S,4R)-4-(2,4-difluorophenyl)pyrrolidin-3-yl]carbonyl}-3,5-dimethylpiperidin-4-ol hydrochloride]
6 | < 50 | C[C@@H]1CN(C(=O)[C@@H]2CN(C(C)(C)C)C[C@H]2c2ccc(F)cc2F)C[C@H](C)[C@@]1(O)c1c(F)cccc1F [Example 17, (3R,4R,5S)-1-[{(3S,4R)-1-tert-butyl-4-(2,4-difluorophenyl)pyrrolidin-3-yl]carbonyl}-4-(2,6-difluorophenyl)-3,5-dimethylpiperidin-4-ol hydrochloride]
7 | < 150 | C[C@@H]1CN(C(=O)[C@@H]2CNC[C@H]2c2ccc(F)cc2F)C[C@H](C)[C@@]1(O)c1cccc(F)c1 [Example 20, (3R,4R,5S)-1-{[(3S,4R)-4-(2,4-difluorophenyl)pyrrolidin-3-yl]carbonyl}-4-(3-fluorophenyl)-3,5-dimethylpiperidin-4-ol hydrochloride]
8 | < 150 | C[C@@H]1CN(C(=O)[C@@H]2CN(c3cnccn3)C[C@H]2c2ccc(F)cc2F)C[C@H](C)[C@@]1(O)c1ccccc1 [Example 33, (3R,4R,5S)-1-{[(3S,4R)-4-(2,4-Difluorophenyl)-1-pyrazin-2-ylpyrrolidin-3-yl]carbonyl}-3,5-dimethyl-4-phenylpiperidin-4-ol hydrochloride]
9 | < 10 | C[C@@H]1CN(C(=O)[C@@H]2CN(c3cccnc3)C[C@H]2c2ccc(F)cc2F)C[C@H](C)[C@@]1(O)c1ccccc1 [Example 34, (3R,4R,5S)-1-{[(3S,4R)-4-(2,4-Difluorophenyl)-1-pyridin-3-ylpyrrolidin-3-yl]carbonyl}-3,5-dimethyl-4-phenylpiperidin-4-ol hydrochloride]
10 | < 150 | C[C@@H]1CN(C(=O)[C@@H]2CN(c3cncnc3)C[C@H]2c2ccc(F)cc2F)C[C@H](C)[C@@]1(O)c1ccccc1 [Example 36, (3R,4R,5S)-1-{[(3S,4R)-4-(2,4-Difluorophenyl)-1-pyrimidin-5-ylpyrrolidin-3-yl]carbonyl}-3,5-dimethyl-4-phenylpiperidin-4-ol hydrochloride]
11 | < 150 | CCC[C@@]1(O)[C@H](C)CN(C(=O)[C@@H]2CN(C(C)(C)C)C[C@H]2c2ccc(F)cc2F)C[C@@H]1C [Example 40, (3R,4R,5S)-1-{[(3S,4R)-1-tert-Butyl-4-(24-difluorophenyl)pyrrolidin-3-yl]carbonyl}-3,5-dimethyl-4-propylpiperidin-4-ol hydrochloride]
12 | < 10 | C[C@@H]1CN(C(=O)[C@@H]2CN(c3ccncn3)C[C@H]2c2ccc(F)cc2F)C[C@H](C)[C@@]1(O)c1ccccc1 [Example 42, (3R,4R,5S)-1-{[(3S,4R)-4-(2,4-difluorophenyl)-1-pyrimidin-4-ylpyrrolidin-3-yl]carbonyl}-3,5-dimethyl-4-phenylpiperidin-4-ol hydrochloride]
13 | < 50 | C[C@@H]1CN(C(=O)[C@@H]2CN(c3ccncn3)C[C@H]2c2ccc(F)cc2F)C[C@H](C)[C@@]1(O)c1ccccn1 [Example 44, (3R,4R,5S)-1-{[(3S,4R)-4-(2,4-difluorophenyl)-1-pyrimidin-4-ylpyrrolidin-3-yl]carbonyl}-3,5-dimethyl-4-pyridin-2-ylpiperidin-4-ol hydrochloride]
14 | < 10 | C[C@@H]1CN(C(=O)[C@@H]2CN(c3cccnn3)C[C@H]2c2ccc(F)cc2F)C[C@H](C)[C@@]1(O)c1ccccn1 [Example 47, (3R,4R,5S)-1-{[(3S,4R)-4-(2,4-Difluorophenyl)-1-pyridazin-3-ylpyrrolidin-3-yl]carbonyl}-3,5-dimethyl-4-pyridin-2-ylpiperidin-4-ol hydrochloride]
15 | < 150 | CC(C)N1C[C@@H](C(=O)N2C[C@@H](C)[C@](O)(c3ccc(Cl)cc3)[C@@H](C)C2)[C@H](c2ccc(F)cc2F)C1 [Example 50, (3R,4R,5S)-4-(4-chlorophenyl)-1-{[(3S,4R)-4-(2,4-difluorophenyl)-1-isopropylpyrrolidin-3-yl]carbonyl}-3,5-dimethylpiperidin-4-ol hydrochloride]
16 | < 50 | CC(C)N1C[C@@H](C(=O)N2C[C@@H](C)[C@](O)(c3ccc(F)c(F)c3)[C@@H](C)C2)[C@H](c2ccc(F)cc2F)C1 [Example 51, (3R,4R,5S)-4-(3,4-difluorophenyl)-1-{[(3S,4R)-4-(2,4-difluorophenyl)-1-isopropylpyrrolidin-3-yl]carbonyl}-3,5-dimethylpiperidin-4-ol hydrochloride]
17 | < 50 | CC(C)N1C[C@@H](C(=O)N2C[C@@H](C)[C@](O)(c3ccc(F)cc3F)[C@@H](C)C2)[C@H](c2ccc(F)cc2F)C1 [Example 52, (3R,4R,5S)-4-(2,4-difluorophenyl)-1-{[(3S,4R)-4-(2,4-difluorophenyl)-1-isopropylpyrrolidin-3-yl]carbonyl}-3,5-dimethylpiperidin-4-ol hydrochloride]

Row | SMILES | EC50 [nM]
18 | C[C@@H]1CN(C(=O)[C@@H]2CNC[C@H]2c2ccc(Cl)cc2)C[C@H](C)[C@@]1(O)c1ccccc1 [Example 48, (3R,4R,5S)-1-{[(3S,4R)-4-(4-Chlorophenyl)pyrrolidin-3-yl]carbonyl}-3,5-dimethyl-4-phenylpiperidin-4-ol hydrochloride] | < 150

same assay, conditions: Table 6, read-out: MCR4 EC50

Row | EC50 [nM] | SMILES
19 | 54 | C[C@@H]1CN(C(=O)[C@@H]2CNC[C@H]2c2ccc(F)cc2F)C[C@H](C)[C@@]1(O)c1ccc(F)cc1F [Example 16, (3R,4R,5S)-4-(2,4-difluorophenyl)-1-{[(3S,4R)-4-(2,4-difluorophenyl)pyrrolidin-3-yl]carbonyl}-3,5-dimethylpiperidin-4-ol hydrochloride]
20 | 4 | C[C@@H]1CN(C(=O)[C@@H]2CN(c3cccnc3)C[C@H]2c2ccc(F)cc2F)C[C@H](C)[C@@]1(O)c1ccccc1 [Example 34, (3R,4R,5S)-1-{[(3S,4R)-4-(2,4-Difluorophenyl)-1-pyridin-3-ylpyrrolidin-3-yl]carbonyl}-3,5-dimethyl-4-phenylpiperidin-4-ol hydrochloride]

same assay, conditions: functional potency at the MC4 receptor (EC50), Protocols C or E

Row | SMILES | EC50 [nM]
21 | C[C@@H]1CN(C(=O)[C@@H]2CN(C(C)(C)C)C[C@H]2c2ccc(F)cc2F)C[C@H](C)[C@@]1(O)c1cccc(F)c1 [Example 19, (3R,4R,5S)-1-{[(3S,4R)-1-tert-butyl-4-(2,4-difluorophenyl)pyrrolidin-3-yl]carbonyl}-4-(3-fluorophenyl)-3,5-dimethylpiperidin-4-ol hydrochloride] | < 10
